Source: patent US20230295234A1, “ANTIMICROBIAL PEPTIDOMIMETICS” (SPEXIS AG, priority 2020, published 2023)
Bridge positions count the residues as written; N and C are the ends. Square brackets hold non-standard residues; d marks the D form. Peptide text beside a SMILES is read from it. * marks the point of attachment. Pro(4R-NH2) = N[C@H]1CN[C@H](C(=O)O)C1; X2 = N=C(N)N1C[C@H](O)C[C@H]1C(=O)*; Gly(N-2-aminoethyl) = NCCNCC(=O)O; Gly(N(CH2)3NH2) = NCCCNCC(=O)O; Pen = CC(C)(S)[C@H](N)C(=O)O; dDab = NCC[C@@H](N)C(=O)O; Dab = NCC[C@H](N)C(=O)O; Nlys = NCCCCNCC(=O)O

How the values were obtained:
[1] = test system: Escherichia coli ATCC 25922; details: ATCC 25922
Procedure, shortened: (§1)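 Peptides were made up as 1 mg/mL stocks in sterile water. Colonies in 0.85% saline were set to 0.5 McFarland, then diluted in cation-adjusted Mueller-Hinton II broth to about 5×10^5 CFU/mL. Inoculum was combined with two-fold serial peptide dilutions in water containing 0.002% (final) polysorbate 80.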

[2] = test system: Escherichia coli MCR-1 Af 45; details: MCR-1 Af 45
Procedure, shortened: as §1

[3] = test system: Klebsiella pneumoniae SSI3010; details: SSI3010
Procedure, shortened: as §1

[4] = test system: human red blood cells (hRBC); experiment: Hemolysis of human red blood cells; type: cell-based; details: red cells of human, 1 h
Procedure, shortened: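 Percent hemolysis is OD540 of peptide-treated supernatant relative to water-lysed cells. Each peptide was tested at 200 μg/mL against 20% (v/v) washed human erythrocytes. Incubation was 1 h at 37 °C, 300 rpm.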

| SMILES | Escherichia coli ATCC 25922 MIC [1] [mg/L] | Escherichia coli MCR-1 Af 45 MIC [2] [mg/L] | Klebsiella pneumoniae SSI3010 MIC [3] [mg/L] | Hemolysis at 0.2 g/L [4] [%] |
| --- | --- | --- | --- | --- |
| CC[C@H](C)[C@H](NC(=O)[C@@H](NC(=O)[C@@H]1CCCN1C(=O)[C@@H](NC(=O)CNC)C(C)C)[C@@H](C)CC)C(=O)N[C@@H](Cc1ccc(O)cc1)C(=O)N[C@H]1CSSC[C@@H](C(=O)N[C@@H](CCN)C(=O)N[C@@H](CCCNC(=N)N)C(=O)N[C@@H](Cc2ccc(O)cc2)C(=O)O)NC(=O)[C@H](CCCCN)NC(=O)[C@@H](CCN)NC(=O)[C@H]([C@@H](C)O)NC(=O)[C@H](CCN)NC(=O)[C@H](CCCNC(=N)N)NC(=O)[C@H](CC(N)=O)NC1=O [Example 30] (HELM PEPTIDE1{[Sar].V.P.I.I.Y.C.N.R.[Dab].T.[NCC[C@@H](N[*:1])C(=O)[*:2]].K.C.[Dab].R.Y}$PEPTIDE1,PEPTIDE1,7:R3-14:R3$$$V2.0) | 0.125 | 0.125 | 0.25 | 0 |
| CC[C@H](C)[C@H](NC(=O)CN(CCCCN)C(=O)[C@@H](NC(=O)CNCCCCN)C(C)C)C(=O)N[C@H](C(=O)N[C@@H](Cc1ccc(O)cc1)C(=O)N[C@@H]1C(=O)N[C@@H](CC(N)=O)C(=O)N[C@@H](CCCNC(=N)N)C(=O)N[C@@H](CCN)C(=O)N[C@@H]([C@@H](C)O)C(=O)N[C@H](CCN)C(=O)N[C@@H](CCCCN)C(=O)N[C@H](C(=O)N[C@@H](CCN)C(=O)N[C@@H](CCCNC(=N)N)C(=O)N[C@@H](Cc2ccc(O)cc2)C(=O)O)CSSC1(C)C)[C@@H](C)CC [Example 31, Nlys-Val-Nlys-Ile-Ile-Tyr-Pen-Asn-Arg-Dab-Thr-^DDab-Lys-Cys-Dab-Arg-Tyr] (H-[Nlys]V[Nlys]IIY[Pen]NR[Dab]T[dDab]KC[Dab]RY-OH; disulfide 7-14) | 0.125 | 0.0625 | 0.25 | 0 |
| CC[C@H](C)[C@H](NC(=O)CN(CCCN)C(=O)[C@@H](NC(=O)CNCCCN)C(C)C)C(=O)N[C@H](C(=O)N[C@@H](Cc1ccc(O)cc1)C(=O)N[C@@H]1C(=O)N[C@@H](CC(N)=O)C(=O)N[C@@H](CCCNC(=N)N)C(=O)N[C@@H](CCN)C(=O)N[C@@H]([C@@H](C)O)C(=O)N[C@H](CCN)C(=O)N[C@@H](CCCCN)C(=O)N[C@H](C(=O)N[C@@H](CCN)C(=O)N[C@@H](CCCNC(=N)N)C(=O)N[C@@H](Cc2ccc(O)cc2)C(=O)O)CSSC1(C)C)[C@@H](C)CC [Example 32, Norn-Val-Norn-Ile-Ile-Tyr-Pen-Asn-Arg-Dab-Thr-^DDab-Lys-Cys-Dab-Arg-Tyr] (H-[Gly(N(CH2)3NH2)]V[Gly(N(CH2)3NH2)]IIY[Pen]NR[Dab]T[dDab]KC[Dab]RY-OH; disulfide 7-14) | 0.125 | 0.0625 | 0.125 | 0 |
| CC[C@H](C)[C@H](NC(=O)[C@@H]1C[C@@H](O)CN1C(=O)[C@@H](NC(=O)CNCCCN)C(C)C)C(=O)N[C@H](C(=O)N[C@@H](Cc1ccc(O)cc1)C(=O)N[C@@H]1C(=O)N[C@@H](CC(N)=O)C(=O)N[C@@H](CCCNC(=N)N)C(=O)N[C@@H](CCN)C(=O)N[C@@H]([C@@H](C)O)C(=O)N[C@H](CCN)C(=O)N[C@@H](CCCCN)C(=O)N[C@H](C(=O)N[C@@H](CCN)C(=O)N[C@@H](CCCNC(=N)N)C(=O)N[C@@H](Cc2ccc(O)cc2)C(=O)O)CSSC1(C)C)[C@@H](C)O [Example 33, Norn-Val-Hyp-Ile-Thr-Tyr-Pen-Asn-Arg-Dab-Thr-^DDab-Lys-Cys-Dab-Arg-Tyr] (HELM PEPTIDE1{[NCCCNCC(=O)[*:2]].V.[Hyp].I.T.Y.[Pen].N.R.[Dab].T.[NCC[C@@H](N[*:1])C(=O)[*:2]].K.C.[Dab].R.Y}$PEPTIDE1,PEPTIDE1,7:R3-14:R3$$$V2.0) | 0.125 | 0.125 | 0.25 | 0 |

Now from value to molecule, other results behind:

| Escherichia coli ATCC 25922 MIC [1] [mg/L] | Escherichia coli MCR-1 Af 45 MIC [2] [mg/L] | Klebsiella pneumoniae SSI3010 MIC [3] [mg/L] | SMILES | Hemolysis at 0.2 g/L [4] [%] |
| --- | --- | --- | --- | --- |
| 0.125 | 0.125 | 0.125 | CC[C@H](C)[C@H](NC(=O)[C@@H]1C[C@@H](O)CN1C(=O)[C@@H](NC(=O)CNCCCCN)C(C)C)C(=O)N[C@H](C(=O)N[C@@H](Cc1ccc(O)cc1)C(=O)N[C@@H]1C(=O)N[C@@H](CC(N)=O)C(=O)N[C@@H](CCCNC(=N)N)C(=O)N[C@@H](CCN)C(=O)N[C@@H]([C@@H](C)O)C(=O)N[C@H](CCN)C(=O)N[C@@H](CCCCN)C(=O)N[C@H](C(=O)N[C@@H](CCN)C(=O)N[C@@H](CCCNC(=N)N)C(=O)N[C@@H](Cc2ccc(O)cc2)C(=O)O)CSSC1(C)C)[C@@H](C)O [Example 34, Nlys-Val-Hyp-Ile-Thr-Tyr-Pen-Asn-Arg-Dab-Thr-^DDab-Lys-Cys-Dab-Arg-Tyr] (HELM PEPTIDE1{[NCCCCNCC(=O)[*:2]].V.[Hyp].I.T.Y.[Pen].N.R.[Dab].T.[NCC[C@@H](N[*:1])C(=O)[*:2]].K.C.[Dab].R.Y}$PEPTIDE1,PEPTIDE1,7:R3-14:R3$$$V2.0) | 0 |
| 0.125 | 0.125 | 0.25 | CC[C@H](C)[C@H](NC(=O)[C@@H]1C[C@@H](O)CN1C(=O)[C@@H](NC(=O)[C@@H]1C[C@@H](O)CN1C(=N)N)C(C)C)C(=O)N[C@H](C(=O)N[C@@H](Cc1ccc(O)cc1)C(=O)N[C@@H]1C(=O)N[C@@H](CC(N)=O)C(=O)N[C@@H](CCCNC(=N)N)C(=O)N[C@@H](CCN)C(=O)N[C@@H]([C@@H](C)O)C(=O)N[C@H](CCN)C(=O)N[C@@H](CCCCN)C(=O)N[C@H](C(=O)N[C@@H](CCN)C(=O)N[C@@H](CCCNC(=N)N)C(=O)N[C@@H](Cc2ccc(O)cc2)C(=O)O)CSSC1(C)C)[C@@H](C)O [Example 35, Gua-Hyp-Val-Hyp-Ile-Thr-Tyr-Pen-Asn-Arg-Dab-Thr-^DDab-Lys-Cys-Dab-Arg-Tyr] (HELM PEPTIDE1{[N=C(N)N1C[C@H](O)C[C@H]1C(=O)[*:2]].V.[Hyp].I.T.Y.[Pen].N.R.[Dab].T.[NCC[C@@H](N[*:1])C(=O)[*:2]].K.C.[Dab].R.Y}$PEPTIDE1,PEPTIDE1,7:R3-14:R3$$$V2.0) | 0 |
| 0.125 | 0.0625 | 0.125 | CC[C@H](C)[C@H](NC(=O)[C@@H]1C[C@@H](N)CN1C(=O)[C@@H](NC(=O)[C@@H]1C[C@@H](O)CN1C(=N)N)C(C)C)C(=O)N[C@H](C(=O)N[C@@H](Cc1ccc(O)cc1)C(=O)N[C@@H]1C(=O)N[C@@H](CC(N)=O)C(=O)N[C@@H](CCCNC(=N)N)C(=O)N[C@@H](CCN)C(=O)N[C@@H]([C@@H](C)O)C(=O)N[C@H](CCN)C(=O)N[C@@H](CCCCN)C(=O)N[C@H](C(=O)N[C@@H](CCN)C(=O)N[C@@H](CCCNC(=N)N)C(=O)N[C@@H](Cc2ccc(O)cc2)C(=O)O)CSSC1(C)C)[C@@H](C)O [Example 36, Gua-Hyp-Val-Pro((4R)NH2)-Ile-Thr-Tyr-Pen-Asn-Arg-^Dab-Thr-^DDab-Lys-Cys-Dab-Arg-Tyr] (X2-V[Pro(4R-NH2)]ITY[Pen]NR[Dab]T[dDab]KC[Dab]RY-OH; disulfide 6-13) | 0 |
| 0.25 | 0.0625 | 0.25 | CC[C@H](C)[C@H](NC(=O)CN(CCN)C(=O)[C@@H](NC(=O)[C@@H]1C[C@@H](O)CN1C(=N)N)C(C)C)C(=O)N[C@H](C(=O)N[C@@H](Cc1ccc(O)cc1)C(=O)N[C@@H]1C(=O)N[C@@H](CC(N)=O)C(=O)N[C@@H](CCCNC(=N)N)C(=O)N[C@@H](CCN)C(=O)N[C@@H]([C@@H](C)O)C(=O)N[C@H](CCN)C(=O)N[C@@H](CCCCN)C(=O)N[C@H](C(=O)N[C@@H](CCN)C(=O)N[C@@H](CCCNC(=N)N)C(=O)N[C@@H](Cc2ccc(O)cc2)C(=O)O)CSSC1(C)C)[C@@H](C)O [Example 37, Gua-Hyp-Val-Ndab-Ile-Thr-Tyr-Pen-Asn-Arg-Dab-Thr-^DDab-Lys-Cys-Dab-Arg-Tyr] (X2-V[Gly(N-2-aminoethyl)]ITY[Pen]NR[Dab]T[dDab]KC[Dab]RY-OH; disulfide 6-13) | 0 |
| 0.25 | 0.0625 | 0.125 | CC[C@H](C)[C@H](NC(=O)[C@@H]1C[C@@H](O)CN1C(=O)[C@@H](NC(=O)[C@@H]1C[C@@H](N)CN1C(=N)N)C(C)C)C(=O)N[C@H](C(=O)N[C@@H](Cc1ccc(O)cc1)C(=O)N[C@@H]1C(=O)N[C@@H](CC(N)=O)C(=O)N[C@@H](CCCNC(=N)N)C(=O)N[C@@H](CCN)C(=O)N[C@@H]([C@@H](C)O)C(=O)N[C@H](CCN)C(=O)N[C@@H](CCCCN)C(=O)N[C@H](C(=O)N[C@@H](CCN)C(=O)N[C@@H](CCCNC(=N)N)C(=O)N[C@@H](Cc2ccc(O)cc2)C(=O)O)CSSC1(C)C)[C@@H](C)O [Example 38, Gua-Pro((4R)NH2)-Val-Hyp-Ile-Thr-Tyr-Pen-Asn-Arg-Dab-Thr-^DDab-Lys-Cys-Dab-Arg-Tyr] (HELM PEPTIDE1{[N=C(N)N1C[C@H](N)C[C@H]1C(=O)[*:2]].V.[Hyp].I.T.Y.[Pen].N.R.[Dab].T.[NCC[C@@H](N[*:1])C(=O)[*:2]].K.C.[Dab].R.Y}$PEPTIDE1,PEPTIDE1,7:R3-14:R3$$$V2.0) | 0 |
